Consider 19 compounds from US20110038885A1, “CHEMOKINE ANALOGS” (priority 2007, published 2011).

Numbered stars: 1 amine (or outer) side, 2 acyl side, 3 side chain; on linkers, the order of the positions; unused ones are H or OH. Bridge positions count the residues as written; N and C are the ends. Square brackets hold non-standard residues; d marks the D form. Peptide text beside a SMILES is read from it. * marks the point of attachment. NH(CH2)8CO = O=C(CCCCCCCCN[*:1])[*:2]; Isobutyryl = CC(C)C(=O)*; Orn = NCCC[C@H](N)C(=O)O; Dab = NCC[C@H](N)C(=O)O; Dap = NC[C@H](N)C(=O)O

In the experiment the test system is MCP-1. The experiment in a line: In vitro chemotaxis (trans-well migration) v MCP-1. It counts as cell-based, human. As to the method:
To determine whether an agent inhibits a chemokine-induced activity, such as macrophage recruitment, varying amounts of the agent are mixed with cells in the presence of a known chemoattractant. For example, a range of known concentrations of an agent, e.g., a chemokine peptide, is incubated with a defined number (e.g., 10^4-10^6) of human THP-1 monocyte cells in individual wells of the top compartment of a trans-well plate. Chemokine, at a concentration known to cause significant migration of THP-1 cells in the trans-well migration assay, is placed in the lower compartment of a trans-well plate. Cells are then incubated at 37° C. for a period sufficient to allow migration, e.g., 4 hours. After incubation, the cells are gently removed from the top of the filter with a pipette, 20 μl of 20 mM EDTA in simple PBS is added into each top well, and incubated for 20 minutes at 4° C. The filter is carefully flushed with media using a gentle flow, and removed. A standard curve consisting of a two-fold dilution series of THP-1 cells (in 29 μl) is placed to accurately quantify the number of cells that have migrated. Migrated cells are stained with 3 μl of MTT stock dye solution which is added directly into each well (5 mg/ml in RPMI-1640 without phenol red) (Sigma Chemical Co., St. Louis, Mo., USA) and incubated at 37° C. for 4 hours. The media is carefully aspirated from each well, and the converted dye is solubilized by 20 μl of DMSO. Absorbance of converted dye is measured at a wavelength of 595 nm using an ELISA plate reader. The number of migrated cells in each well is then determined by interpolation of the standard curve (see also Imai et al., J. Biol. Chem., 272:15036, 1997). Any method suitable for counting cells can be used, for example, counting with a hemocytometer, incubation of the cells with MTT (see above), or FACS analysis. A negative control assay is also performed, using TGFβ or another non-chemokine chemoattractant (e.g., IL1β or TNFα). To assess whether the agent is cytotoxic, the same concentrations of agent are incubated with THP-1 cells. Agents which 1) are not cytotoxic at levels which inhibit migration, 2) are ineffective at inhibiting the negative control-induced migration, and 3) reduce or inhibit chemokine-induced THP-1 migration, are agents which fall within the scope of the invention.
Compound `CC[C@H](C)[C@@H]1NC(=O)[C@H](Cc2c[nH]c3ccccc23)NC(=O)[C@H](CCCCN)NC(=O)CCCCCCCCNC(=O)C[C@@H](C(N)=O)NC(=O)[C@H](CCC(N)=O)NC1=O` [Example 97, c(Anc-Lys-Trp-Ile-Gln-Asp)-NH2] ([NH(CH2)8CO]KWIQD-NH2; lactam N-6) registered an EC50 of 15 nM.
As for `CC[C@H](C)[C@@H]1NC(=O)[C@H](Cc2c[nH]c3ccccc23)NC(=O)[C@H](CCCCN)NC(=O)CCCCCCCCNC(=O)CC[C@@H](C(N)=O)NC(=O)[C@H](CCC(N)=O)NC1=O` [Example 98, c(Anc-Lys-Trp-Ile-Gln-Glu)-NH2] ([NH(CH2)8CO]KWIQE-NH2; lactam N-6), the EC50 was determined as 15 nM. This lies in the double-digit nanomolar range.
`CC[C@H](C)[C@@H]1NC(=O)[C@H](Cc2c[nH]c3ccccc23)NC(=O)[C@H](CCCCN)NC(=O)[C@@H](NC(=O)C(C)C)CC(=O)NCCC[C@@H](C(N)=O)NC(=O)[C@H](CCC(N)=O)NC1=O` [Example 99, Isobutyryl-c(Asp-Lys-Trp-Ile-Gln-Orn)-NH2] (Isobutyryl-DKWIQ[Orn]-NH2; lactam 1-6) registered an EC50 of 50 nM.
Next, `CC[C@H](C)[C@@H]1NC(=O)[C@H](Cc2c[nH]c3ccccc23)NC(=O)[C@H](CCCCN)NC(=O)[C@@H](NC(=O)C(C)C)CCC(=O)NC[C@@H](C(N)=O)NC(=O)[C@H](CCC(N)=O)NC1=O` [Example 100, Isobutyryl-c(Glu-Lys-Trp-Ile-Gln-Dap)-NH2] (Isobutyryl-EKWIQ[Dap]-NH2; lactam 1-6): 10 nM; `CC[C@H](C)[C@@H]1NC(=O)[C@H](Cc2c[nH]c3ccccc23)NC(=O)[C@H](CCCCN)NC(=O)[C@@H](NC(=O)C(C)C)CCC(=O)NCC[C@@H](C(N)=O)NC(=O)[C@H](CCC(N)=O)NC1=O` [Example 101, Isobutyryl-c(Glu-Lys-Trp-Ile-Gln-Dab)-NH2] (Isobutyryl-EKWIQ[Dab]-NH2; lactam 1-6): 4 nM; `CC[C@H](C)[C@@H]1NC(=O)[C@H](Cc2c[nH]c3ccccc23)NC(=O)[C@H](CCCCN)NC(=O)[C@@H](NC(=O)C(C)C)CCC(=O)NCCC[C@@H](C(N)=O)NC(=O)[C@H](CCC(N)=O)NC1=O` [Example 102, Isobutyryl-c(Glu-Lys-Trp-Ile-Gln-Orn)-NH2] (Isobutyryl-EKWIQ[Orn]-NH2; lactam 1-6): 10 nM.
For `CC[C@H](C)[C@@H]1NC(=O)[C@H](Cc2c[nH]c3ccccc23)NC(=O)[C@H](CCCCN)NC(=O)[C@@H](NC(=O)C(C)C)CCC(=O)NCCCC[C@@H](C(N)=O)NC(=O)[C@H](CCC(N)=O)NC1=O` [Example 103, Isobutyryl-c(Glu-Lys-Trp-Ile-Gln-Lys)-NH2] (Isobutyryl-EKWIQK-NH2; lactam 1-6) the value was 8 nM; for `CC[C@H](C)[C@@H]1NC(=O)[C@H](Cc2c[nH]c3ccccc23)NC(=O)[C@H](CCCCN)NC(=O)[C@@H](NC(=O)C(C)C)CNC(=O)C[C@@H](C(N)=O)NC(=O)[C@H](CCC(N)=O)NC1=O` [Example 104, Isobutyryl-c(Dap-Lys-Trp-Ile-Gln-Asp)-NH2] (Isobutyryl-[Dap]KWIQD-NH2; lactam 1-6), 50 nM; for `CC[C@H](C)[C@@H]1NC(=O)[C@H](Cc2c[nH]c3ccccc23)NC(=O)[C@H](CCCCN)NC(=O)[C@@H](NC(=O)C(C)C)CCNC(=O)C[C@@H](C(N)=O)NC(=O)[C@H](CCC(N)=O)NC1=O` [Example 105, Isobutyryl-c(Dab-Lys-Trp-Ile-Gln-Asp)-NH2] (Isobutyryl-[Dab]KWIQD-NH2; lactam 1-6), 15 nM.
`CC[C@H](C)[C@@H]1NC(=O)[C@H](Cc2c[nH]c3ccccc23)NC(=O)[C@H](CCCCN)NC(=O)[C@@H](NC(=O)C(C)C)CCCCNC(=O)C[C@@H](C(N)=O)NC(=O)[C@H](CCC(N)=O)NC1=O` [Example 106, Isobutyryl-c(Lys-Lys-Trp-Ile-Gln-Asp)-NH2] (Isobutyryl-KKWIQD-NH2; lactam 1-6): the midpoint of the response, the EC50, lay at 8 nM.
With `CC[C@H](C)[C@@H]1NC(=O)[C@H](Cc2c[nH]c3ccccc23)NC(=O)[C@H](CCCCN)NC(=O)[C@@H](NC(=O)C(C)C)CCNC(=O)CC[C@@H](C(N)=O)NC(=O)[C@H](CCC(N)=O)NC1=O` [Example 107, Isobutyryl-c(Dab-Lys-Trp-Ile-Gln-Glu)-NH2] (Isobutyryl-[Dab]KWIQE-NH2; lactam 1-6), the response was half-maximal at 8 nM (EC50).
The compound `CC[C@H](C)[C@@H]1NC(=O)[C@H](Cc2c[nH]c3ccccc23)NC(=O)[C@H](CCCCN)NC(=O)[C@@H](NC(=O)C(C)C)CCCNC(=O)CC[C@@H](C(N)=O)NC(=O)[C@H](CCC(N)=O)NC1=O` [Example 108, Isobutyryl-c(Orn-Lys-Trp-Ile-Gln-Glu)-NH2] (Isobutyryl-[Orn]KWIQE-NH2; lactam 1-6) displayed an EC50 of 8 nM.
Regarding `CC[C@H](C)[C@@H]1NC(=O)[C@H](Cc2c[nH]c3ccccc23)NC(=O)[C@H](CCCCN)NC(=O)[C@@H](NC(=O)C(C)C)CCCCNC(=O)CC[C@@H](C(N)=O)NC(=O)[C@H](CCC(N)=O)NC1=O` [Example 109, Isobutyryl-c(Lys-Lys-Trp-Ile-Gln-Glu)-NH2] (Isobutyryl-KKWIQE-NH2; lactam 1-6), a half-maximal effect (EC50) was put at 8 nM.
Compound `CC[C@H](C)[C@@H]1NC(=O)[C@H](Cc2c[nH]c3ccccc23)NC(=O)[C@H](CCCCN)NC(=O)[C@@H](NC(C)=O)CC(=O)NC[C@@H](C(N)=O)NC(=O)[C@H](CCC(N)=O)NC1=O` [Example 110, Ac-c(Asp-Lys-Trp-Ile-Gln-Dap)-NH2] (Ac-DKWIQ[Dap]-NH2; lactam 1-6) returned an EC50 of 8 nM.
The compound `CC[C@H](C)[C@@H]1NC(=O)[C@H](Cc2c[nH]c3ccccc23)NC(=O)[C@H](CCCCN)NC(=O)[C@@H](NC(C)=O)CC(=O)NCC[C@@H](C(N)=O)NC(=O)[C@H](CCC(N)=O)NC1=O` [Example 111, Ac-c(Asp-Lys-Trp-Ile-Gln-Dab)-NH2] (Ac-DKWIQ[Dab]-NH2; lactam 1-6) returned an EC50 of 4 nM.
On to `CC[C@H](C)[C@@H]1NC(=O)[C@H](Cc2c[nH]c3ccccc23)NC(=O)[C@H](CCCCN)NC(=O)[C@@H](NC(C)=O)CC(=O)NCCC[C@@H](C(N)=O)NC(=O)[C@H](CCC(N)=O)NC1=O` [Example 112, Ac-c(Asp-Lys-Trp-Ile-Gln-Orn)-NH2] (Ac-DKWIQ[Orn]-NH2; lactam 1-6), for which a half-maximal effect (EC50) was put at 6 nM. This EC50 is about 1.5-fold higher than that of the compound before.
On to `CC[C@H](C)[C@@H]1NC(=O)[C@H](Cc2c[nH]c3ccccc23)NC(=O)[C@H](CCCCN)NC(=O)[C@@H](NC(C)=O)CCC(=O)NC[C@@H](C(N)=O)NC(=O)[C@H](CCC(N)=O)NC1=O` [Example 113, Ac-c(Glu-Lys-Trp-Ile-Gln-Dap)-NH2] (Ac-EKWIQ[Dap]-NH2; lactam 1-6), for which the EC50 was found to be 30 nM.
The compound `CC[C@H](C)[C@@H]1NC(=O)[C@H](Cc2c[nH]c3ccccc23)NC(=O)[C@H](CCCCN)NC(=O)[C@@H](NC(C)=O)CCC(=O)NCC[C@@H](C(N)=O)NC(=O)[C@H](CCC(N)=O)NC1=O` [Example 114, Ac-c(Glu-Lys-Trp-Ile-Gln-Dab)-NH2] (Ac-EKWIQ[Dab]-NH2; lactam 1-6) came in with an EC50 of 8 nM.
`CC[C@H](C)[C@@H]1NC(=O)[C@H](Cc2c[nH]c3ccccc23)NC(=O)[C@H](CCCCN)NC(=O)[C@@H](NC(C)=O)CCC(=O)NCCC[C@@H](C(N)=O)NC(=O)[C@H](CCC(N)=O)NC1=O` [Example 115, Ac-c(Glu-Lys-Trp-Ile-Gln-Orn)-NH2] (Ac-EKWIQ[Orn]-NH2; lactam 1-6) came in with an EC50 of 5 nM.

The EC50 is the concentration at which the effect is half-maximal. Read a low EC50 as an effect from little substance.
